Experimental data from patent US20230149146A1, “AN AUTOMATED CONTROLLED RELEASE DEVICE FOR LIVESTOCK MANAGEMENT AND METHODS OF USE THEREOF” (CORNELL UNIVERSITY, priority 2020, published 2023).
Entries after “also recorded” stand apart in the source; their conditions may differ. Marks after values point to notes of the source that are not given here. Where no end group is shown, it is not given here.

What was measured:
[1] = tested on: lactating Holstein cows; assay: Luteal regression and plasma P4 after IVG (catheter) or im PGF, first study and follow-up; type: in vivo, cow
Method: Catheters were employed to deliver IVG hormones in lactating Holstein cows. […] In a first study, regression of the corpus luteum (“CL regression”) and plasma P4 concentrations after IVG delivery of 25, 50, or 125 mg PGF (Dinoprost) or of saline 7.5 days after induction of ovulation by Ovsynch injections was evaluated. A positive control group received 25 mg of PGF im (i.e., by intramuscular injection), enabling a comparison of outcomes with im PGF to those with IVG PGF.

[2] = tested on: cows; assay: Larger experiment: physiological outcomes for cows treated with PGF im or IVG; type: in vivo, cow
Text: The PGF experiments' ability to show equal luteal regression with im and IVG administration was limited by small N. Data from a larger, more recent experiment supports non-inferiority for IVG compared to im delivery of PGF to induce luteal regression. […] [table]

[3] = tested on: lactating Holstein cows; assay: Proof-of-concept: luteal regression by IVG PGF from single-chamber prototype device; type: in vivo, cow; details: two 50-mg doses of PGF 12 hours apart via prototype (e-Synch PGF); FIG. 13
Method: Lactating Holstein cows were randomized to receive two 50-mg doses of PGF 12 hours apart, or an equal amount of saline solution (negative control), or two 25-mg doses of PGF IVG (IVG positive control), or a single 25-mg dose of PGF im (im positive control). There were four cows in each group (except for saline, two cows). […] In short, administration worked as well as standard injections.

[4] = tested on: lactating Holstein cows; assay: In-vivo validation of automated IVG device: circulating P4 after PGF2α; set-up: species or system cow
Text: The objective was to develop and validate an electronically-controlled hormone delivery device for reproductive control of cattle. […] The IVG device comprises an outer 3D-printed plastic housing, fluid reservoirs connected to delivery pumps and tubing, a programmable circuit board, and a retention mechanism. For in-vitro testing, 4 pumps were programmed to release different target volumes (0.1, 0.2, 0.5, 1.0, and 2.0 g) in 4 replicates (n=80). A Bland-Altman plot was constructed to assess the magnitude of disagreement between expected and delivered volumes. Observations fell within acceptable limits of agreement (1.96 SD) >95% of the time, indicating overall good agreement (mean difference=−0.005 g). To assess in-vivo performance of the IVG device, lactating Holstein cows with at least 1 corpus luteum ≥15 mm in diameter were randomly allocated to 1 of 3 treatments: IM-PGF (n=6); two 25 mg intramuscular doses of PGF (Dinoprost) 24 h apart, DEV-PGF (n=6); four 25 mg doses of PGF released automatically by the IVG device every 12 h, and DEV-CTL (n=4); insertion of an empty IVG device (placebo control). Blood samples were collected at 0, 12, 24, 36, 48, and 72 h after treatment. Data was analyzed by ANOVA with repeated measures in SAS. All devices (12/12) remained in situ until removed at 48-h. Progesterone (P4) concentrations from 0 to 72 h were affected by treatment, time, and their interaction.
To assess IVG device performance in vivo, lactating nonpregnant primiparous and multiparous Holstein cows from the dairy unit of the Cornell University Ruminant Center (Harford, N.Y.) were enrolled in an experiment. Cows were housed in freestall barns with concrete flooring, self-locking head gates, and fans and sprinklers in the feedline. Cows were milked thrice daily at approximately 8-h intervals and were fed a TMR once a day with ad libitum access to feed and water.
All cows enrolled received a GnRH treatment (200 μg of gonadorelin acetate given intramuscular, Gonabreed, Parnell Pharmaceuticals, Overland Park, Kans., USA) at 40±3 DIM. Seven days later, transrectal ultrasonography (TUS) of the ovaries was performed using a 7.5-MHz linear probe (Ibex Pro; E. I. Medical Imagining, Loveland, Colo.). Cows with […] corpus luteum (CL) ≥15 mm in diameter (n=16) were randomly allocated to 1 of 3 treatments: IM-PGF (n=6), DEV-PGF (n=6), and DEV-CTRL (n=4). Cows in IM-PGF received 2 treatments of 25 mg of PGF2α (12.5 mg/mL of dinoprost tromethamine; Lutalyse HighCon, Zoetis, New York, N.Y.) 24 h apart as a 2 mL injection in the semimembranosus or semitendinosus muscle. Cows in DEV-PGF received 1 IVG device programmed to automatically release 4 doses of 25 mg of PGF2α at ˜12 h intervals (first dose released at time 0). Cows in the DEV-CTRL treatment received an IVG device without PGF2α to serve as a placebo control for the presence of the device in the vagina. All devices were removed at 48 h after insertion.
Blood samples (˜8 to 9 mL) were collected at time 0 and at 12, 24, 36, 48, and 72 h after treatment by puncture of caudal blood vessels using heparinized evacuated tubes (Vacutainer; BD, Franklin Lakes, N.J.). Samples were centrifuged at 2,000×g for 20 min at 4° C. Plasma aliquots were harvested and stored at −20° C. until assayed for progesterone (P4) in duplicate in 3 RIA assays performed as described in Beam, S. W., et al., “Energy balance and ovarian follicle development prior to the first ovulation postpartum in dairy cows receiving three levels of dietary fat.” Biol. Reprod. 56:133-142 (1997), the disclosure of which is incorporated herein by reference in its entirety. The average intra-assay coefficient of variation (CV) was 13.2% whereas the interassay CV was 17.0%. […]

[5] = tested on: lactating Holstein cows; assay: Luteal regression and plasma P4 after IVG (catheter) or im PGF, first study and follow-up; type: in vivo, cow; details: for CLR % (complete luteal regression, P4 < 1 ng/mL) / P4 (ng/mL): PGF25-2X-IVG: two IVG boluses 25 mg PGF 12 h apart
[6] = tested on: lactating Holstein cows; assay: LH response after IVG delivery of GnRH; type: in vivo, cow; details: citric acid as absorption enhancer
Method: LH response of lactating Holstein cows after IVG delivery of GnRH was evaluated. Cows received IVG GnRH (Gonadorelin) at a standard dose of 100 μg, or at doses of 500 or 1,000 μg without and with citric acid as an absorption enhancer. A positive control group received 100 μg GnRH im and a negative control group received saline IVG.

[7] = PGF25-IM: single im bolus 25 mg PGF, 60 h after treatment
[8] = PGF25-IM: single im bolus 25 mg PGF, 72 h after treatment
[9] = PGF25-IVG: single IVG bolus 25 mg PGF, 60 h after treatment
[10] = PGF25-IVG: single IVG bolus 25 mg PGF, 72 h after treatment
[11] = IVG: two 25 mg doses of PGF 12 h apart

CCCCC[C@H](O)/C=C/[C@@H]1[C@@H](C/C=C\CCCC(=O)O)[C@@H](O)C[C@H]1O [PGF, prostaglandin F2α]
CLR % (complete luteal regression, P4 < 1 ng/mL) [1, 7]: 86^b % | P4 (ng/mL) [1, 7]: 0.67 ± 0.23^bc ng/mL | CLR % (complete luteal regression, P4 < 1 ng/mL) [1, 8]: 86^b % | P4 (ng/mL) [1, 8]: 0.57 ± 0.24^c ng/mL | CLR % (complete luteal regression, P4 < 1 ng/mL) [1, 9]: 42^b % | P4 (ng/mL) [1, 9]: 1.74 ± 0.50^b ng/mL | CLR % (complete luteal regression, P4 < 1 ng/mL) [1, 10]: 42^b % | P4 (ng/mL) [1, 10]: 2.24 ± 0.64^b ng/mL | Estrus after PGF, % (increased physical activity within 72 h of treatment) ([2]; IM: 25 mg of PGF im): 47.0% | Ovulation, % (in response to GnRH given within 72 h of PGF treatment) ([2]; IM: 25 mg of PGF im): 88.0% | P4 (ng/mL) at 48 h ([2]; IM: 25 mg of PGF im): 0.4 ± 0.1 ng/mL | P4 (ng/mL) at 72 h ([2]; IM: 25 mg of PGF im): 0.4 ± 0.1 ng/mL | CL regression, % (P4 from >1 ng/mL at treatment to <0.5 ng/mL 72 h after) ([2]; IM: 25 mg of PGF im (Dinoprost), n = 169): 81.1% | Estrus after PGF, % (increased physical activity within 72 h of treatment) [2, 11]: 51.1% | Ovulation, % (in response to GnRH given within 72 h of PGF treatment) [2, 11]: 84.1% | P4 (ng/mL) at 48 h [2, 11]: 0.5 ± 0.1 ng/mL | P4 (ng/mL) at 72 h [2, 11]: 0.6 ± 0.1 ng/mL | CL regression, % (P4 from >1 ng/mL at treatment to <0.5 ng/mL 72 h after) ([2]; IVG: two 25 mg doses of PGF 12 h apart (Dinoprost), n = 179): 81.0% | pattern of P4 decline [3]: consistent with CL regression and similar to that of cows in the positive control groups | P4, one cow ([4]; DEV-PGF (four 25 mg doses by IVG device every 12 h), 36 h after treatment): 1.20 ng/mL | P4 concentrations compared with placebo device control ([4]; DEV-PGF and IM-PGF vs DEV-CTRL, from 24 to 72 h): lesser P4 than cows in DEV-CTL; also recorded: lesser concentrations of P4 than cows in the DEV-CTRL treatment | P4, all other cows ([4]; DEV-PGF and IM-PGF, 36 h after treatment): < 1 ng/mL | P4, all other cows, end of the sampling period ([4]; DEV-PGF and IM-PGF, 72 h): < 0.5 ng/mL | luteal regression by PGF delivered automatically by the device ([4]; DEV-PGF, lactating dairy cows): successful induction of luteal regression; also recorded: complete luteal regression | P4, one cow ([4]; IM-PGF (two 25 mg im doses 24 h apart), 36 h after treatment): 1.21 ng/mL | P4, one cow, end of the sampling period ([4]; IM-PGF, 72 h): 0.50 ng/mL | P4 concentrations, DEV-PGF compared with IM-PGF ([4]; entire sampling period, 0 to 72 h): did not differ | CLR % (complete luteal regression, P4 < 1 ng/mL) ([5]; 60 h after treatment): 100^b % | P4 (ng/mL) ([5]; 60 h after treatment): 0.19 ± 0.04^c ng/mL | CLR % (complete luteal regression, P4 < 1 ng/mL) ([5]; 72 h after treatment): 100^b % | P4 (ng/mL) ([5]; 72 h after treatment): 0.21 ± 0.07^c ng/mL | CL regression, single bolus of IVG PGF compared with im PGF ([5]; single IVG bolus (25, 50 or 125 mg) vs 25 mg im): less effectual than im PGF | cows that experienced complete CL regression ([5]; two 25 mg boluses of IVG PGF 12 hours apart, follow-up experiment): 100% | blood/plasma progesterone after treatment compared with im PGF ([5]; two IVG boluses 25 mg PGF 12 h apart (PGF25-2X-IVG) vs PGF25-IM, FIG. 10): indistinguishable from a single dose intramuscular injection of PGF | luteolytic response compared with single im injection ([5]; two IVG boluses of PGF 12 hours apart, summary of the PGF experiments): comparable luteolytic response to a single intramuscular injection of PGF

gonadotropin releasing hormone (QHWSYGLRPG; ends and bridges not checked; UniProt P01148 24-33, looked up) [GnRH, releasing hormone that triggers LH release]
effect of adding 10% citric acid to the GnRH mixture [6]: necessary for efficacy of IVG GnRH
